Measured values: PubChem BioAssay (NCI)
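In this assay, cells in 96-well plates receive the compound at five concentrations for 48 hours. Endpoints are linearly interpolated between the surrounding concentrations. Here, GI50 denotes the concentration required for 50% inhibition of growth. The concentration for full growth arrest is given as TGI.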

Tests used:
Test in all cases: NCI-60 cell line screen, 48 h
UO-31 renal = tested on: UO-31 renal
OVCAR-4 ovarian = tested on: OVCAR-4 ovarian
SN12C renal = tested on: SN12C renal
KM12 colon = tested on: KM12 colon
SF-295 CNS = tested on: SF-295 CNS
OVCAR-3 ovarian = tested on: OVCAR-3 ovarian
SK-MEL-5 melanoma = tested on: SK-MEL-5 melanoma
NCI-H23 lung = tested on: NCI-H23 lung
MDA-MB-435 = tested on: MDA-MB-435
HT29 colon = tested on: HT29 colon
MALME-3M melanoma = tested on: MALME-3M melanoma
LOX IMVI melanoma = tested on: LOX IMVI melanoma
NCI-H226 lung = tested on: NCI-H226 lung
SW-620 colon = tested on: SW-620 colon
SK-MEL-28 melanoma = tested on: SK-MEL-28 melanoma
A549 NSCLC = tested on: A549 NSCLC
DU-145 prostate = tested on: DU-145 prostate
HS 578T breast = tested on: HS 578T breast
MDA-MB-231 breast = tested on: MDA-MB-231 breast
NCI-H460 lung = tested on: NCI-H460 lung
M14 melanoma = tested on: M14 melanoma
U251 CNS = tested on: U251 CNS
HOP-62 NSCLC = tested on: HOP-62 NSCLC
SF-268 CNS = tested on: SF-268 CNS
SNB-75 CNS = tested on: SNB-75 CNS
OVCAR-5 ovarian = tested on: OVCAR-5 ovarian
NCI-H522 lung = tested on: NCI-H522 lung
UACC-257 melanoma = tested on: UACC-257 melanoma
SF-539 CNS = tested on: SF-539 CNS
TK-10 renal = tested on: TK-10 renal
ACHN renal = tested on: ACHN renal
SK-OV-3 ovarian = tested on: SK-OV-3 ovarian
UACC-62 melanoma = tested on: UACC-62 melanoma
HCT-116 colon = tested on: HCT-116 colon
MCF7 breast = tested on: MCF7 breast
HOP-92 NSCLC = tested on: HOP-92 NSCLC
RPMI-8226 leukemia = tested on: RPMI-8226 leukemia
EKVX NSCLC = tested on: EKVX NSCLC
SNB-19 CNS = tested on: SNB-19 CNS
CAKI-1 renal = tested on: CAKI-1 renal
CCRF-CEM leukemia = tested on: CCRF-CEM leukemia
A498 renal = tested on: A498 renal
IGROV1 ovarian = tested on: IGROV1 ovarian
K-562 leukemia = tested on: K-562 leukemia
SK-MEL-2 melanoma = tested on: SK-MEL-2 melanoma
OVCAR-8 ovarian = tested on: OVCAR-8 ovarian
BT-549 breast = tested on: BT-549 breast
MOLT-4 leukemia = tested on: MOLT-4 leukemia
T-47D breast = tested on: T-47D breast
NCI/ADR-RES ovarian = tested on: NCI/ADR-RES ovarian
SR leukemia = tested on: SR leukemia
HCT-15 colon = tested on: HCT-15 colon
PC-3 prostate = tested on: PC-3 prostate
786-0 renal = tested on: 786-0 renal
RXF 393 renal = tested on: RXF 393 renal
HCC-2998 colon = tested on: HCC-2998 colon
COLO 205 colon = tested on: COLO 205 colon
HL-60(TB) leukemia = tested on: HL-60(TB) leukemia

## COc1cc(OC)c(C(=O)/C=C/c2ccc(C#N)cc2)c(OC)c1
UO-31 renal
  GI50: 1.29 µM
  TGI: 6.26 µM
OVCAR-4 ovarian
  GI50: 1.63 µM
  TGI: > 50 µM
SN12C renal
  GI50: 1.82 µM
  TGI: 7.91 µM
KM12 colon
  GI50: 1.58 µM
  TGI: 6.55 µM
SF-295 CNS
  GI50: 1.72 µM
  TGI: 8.81 µM
OVCAR-3 ovarian
  GI50: 1.77 µM
  TGI: 7.93 µM
SK-MEL-5 melanoma
  GI50: 1.97 µM
  TGI: 6.95 µM
NCI-H23 lung
  GI50: 1.57 µM
  TGI: 11.6 µM
MDA-MB-435
  GI50: 1.32 µM
  TGI: 6.69 µM
HT29 colon
  GI50: 1.88 µM
  TGI: 8.28 µM
MALME-3M melanoma
  GI50: 2.23 µM
  TGI: 10.3 µM
LOX IMVI melanoma
  GI50: 1.37 µM
  TGI: 5.47 µM
NCI-H226 lung
  GI50: 2.67 µM
  TGI: > 50 µM
SW-620 colon
  GI50: 1.84 µM
  TGI: 7.22 µM
SK-MEL-28 melanoma
  GI50: 1.92 µM
  TGI: 7.61 µM
A549 NSCLC
  GI50: 1.85 µM
  TGI: > 50 µM
DU-145 prostate
  GI50: 1.54 µM
  TGI: 6.27 µM
HS 578T breast
  GI50: 1.93 µM
  TGI: > 50 µM
MDA-MB-231 breast
  GI50: 2.31 µM
  TGI: 9.32 µM
NCI-H460 lung
  GI50: 1.35 µM
  TGI: 3.94 µM
M14 melanoma
  GI50: 1.07 µM
  TGI: 3.15 µM
U251 CNS
  GI50: 1.81 µM
  TGI: 7.05 µM
HOP-62 NSCLC
  GI50: 1.44 µM
  TGI: 4.24 µM
SF-268 CNS
  GI50: 1.97 µM
  TGI: 46.5 µM
SNB-75 CNS
  GI50: 1.27 µM
  TGI: 6.62 µM
OVCAR-5 ovarian
  GI50: 2.13 µM
  TGI: 8.4 µM
NCI-H522 lung
  GI50: 1.04 µM
  TGI: 2.92 µM
UACC-257 melanoma
  GI50: 3.35 µM
  TGI: 42.2 µM
SF-539 CNS
  GI50: 1.28 µM
  TGI: 3.85 µM
TK-10 renal
  GI50: 1.71 µM
  TGI: 24 µM
ACHN renal
  GI50: 1.29 µM
  TGI: 4.74 µM
SK-OV-3 ovarian
  GI50: 2.05 µM
  TGI: > 50 µM
UACC-62 melanoma
  GI50: 1.45 µM
  TGI: 5.78 µM
HCT-116 colon
  GI50: 1.07 µM
  TGI: 3.82 µM
MCF7 breast
  GI50: 1.49 µM
  TGI: > 50 µM
HOP-92 NSCLC
  GI50: 1.34 µM
  TGI: 4.96 µM
RPMI-8226 leukemia
  GI50: 1.29 µM
  TGI: 4.92 µM
EKVX NSCLC
  GI50: 2.07 µM
  TGI: > 50 µM
SNB-19 CNS
  GI50: 1.84 µM
  TGI: 6.87 µM
CAKI-1 renal
  GI50: 1.73 µM
  TGI: 8.78 µM
CCRF-CEM leukemia
  GI50: 1.37 µM
  TGI: 15 µM
A498 renal
  GI50: 1.33 µM
  TGI: 3.95 µM
IGROV1 ovarian
  GI50: 1.56 µM
  TGI: 7.75 µM
K-562 leukemia
  GI50: 1.54 µM
  TGI: > 50 µM
SK-MEL-2 melanoma
  GI50: 1.46 µM
  TGI: 4.43 µM
OVCAR-8 ovarian
  GI50: 1.98 µM
  TGI: > 50 µM
BT-549 breast
  GI50: 1.3 µM
  TGI: 5.11 µM
MOLT-4 leukemia
  GI50: 1.44 µM
  TGI: 13 µM
T-47D breast
  GI50: 1.21 µM
  TGI: 7.81 µM
NCI/ADR-RES ovarian
  GI50: 1.4 µM
  TGI: > 50 µM
SR leukemia
  GI50: 0.813 µM
  TGI: > 50 µM
HCT-15 colon
  GI50: 1.05 µM
  TGI: 4.19 µM
PC-3 prostate
  GI50: 1.72 µM
  TGI: 6.87 µM
786-0 renal
  GI50: 1.86 µM
  TGI: 6.88 µM
RXF 393 renal
  GI50: 1.39 µM
  TGI: 4.23 µM
HCC-2998 colon
  GI50: 1.9 µM
  TGI: 6.51 µM
COLO 205 colon
  GI50: 1.82 µM
  TGI: 7.38 µM

## COc1cc2c3c(n(CCCN=[N+]=[N-])c(=O)c2cc1OC)-c1ccc([N+](=O)[O-])cc1C3=O
UO-31 renal
  GI50: 20 µM
  TGI: > 100 µM
OVCAR-4 ovarian
  GI50: > 100 µM
  TGI: > 100 µM
SN12C renal
  GI50: > 100 µM
  TGI: > 100 µM
KM12 colon
  GI50: > 100 µM
  TGI: > 100 µM
SF-295 CNS
  GI50: > 100 µM
  TGI: > 100 µM
OVCAR-3 ovarian
  GI50: > 100 µM
  TGI: > 100 µM
SK-MEL-5 melanoma
  GI50: > 100 µM
  TGI: > 100 µM
NCI-H23 lung
  GI50: 91.1 µM
  TGI: > 100 µM
MDA-MB-435
  GI50: > 100 µM
  TGI: > 100 µM
HT29 colon
  GI50: > 100 µM
  TGI: > 100 µM
MALME-3M melanoma
  GI50: > 100 µM
  TGI: > 100 µM
LOX IMVI melanoma
  GI50: 61 µM
  TGI: > 100 µM
SW-620 colon
  GI50: 55.3 µM
  TGI: > 100 µM
SK-MEL-28 melanoma
  GI50: > 100 µM
  TGI: > 100 µM
A549 NSCLC
  GI50: > 100 µM
  TGI: > 100 µM
DU-145 prostate
  GI50: 34.4 µM
  TGI: > 100 µM
HS 578T breast
  GI50: 48 µM
  TGI: > 100 µM
MDA-MB-231 breast
  GI50: 20.3 µM
  TGI: > 100 µM
NCI-H460 lung
  GI50: 49.5 µM
  TGI: > 100 µM
M14 melanoma
  GI50: > 100 µM
  TGI: > 100 µM
U251 CNS
  GI50: > 100 µM
  TGI: > 100 µM
HOP-62 NSCLC
  GI50: 89.7 µM
  TGI: > 100 µM
SF-268 CNS
  GI50: 33.4 µM
  TGI: > 100 µM
SNB-75 CNS
  GI50: 20.9 µM
  TGI: 66.9 µM
OVCAR-5 ovarian
  GI50: > 100 µM
  TGI: > 100 µM
NCI-H522 lung
  GI50: 16.8 µM
  TGI: > 100 µM
UACC-257 melanoma
  GI50: > 100 µM
  TGI: > 100 µM
SF-539 CNS
  GI50: 38.9 µM
  TGI: > 100 µM
TK-10 renal
  GI50: > 100 µM
  TGI: > 100 µM
ACHN renal
  GI50: > 100 µM
  TGI: > 100 µM
SK-OV-3 ovarian
  GI50: > 100 µM
  TGI: > 100 µM
UACC-62 melanoma
  GI50: 68.7 µM
  TGI: > 100 µM
HCT-116 colon
  GI50: > 100 µM
  TGI: > 100 µM
MCF7 breast
  GI50: 27.9 µM
  TGI: > 100 µM
HOP-92 NSCLC
  GI50: 29.8 µM
  TGI: > 100 µM
RPMI-8226 leukemia
  GI50: 90.7 µM
  TGI: > 100 µM
EKVX NSCLC
  GI50: 40.1 µM
  TGI: > 100 µM
HL-60(TB) leukemia
  GI50: > 100 µM
  TGI: > 100 µM
SNB-19 CNS
  GI50: > 100 µM
  TGI: > 100 µM
CAKI-1 renal
  GI50: > 100 µM
  TGI: > 100 µM
CCRF-CEM leukemia
  GI50: 38.7 µM
  TGI: > 100 µM
A498 renal
  GI50: 96.7 µM
  TGI: > 100 µM
IGROV1 ovarian
  GI50: 0.215 µM
  TGI: 35 µM
K-562 leukemia
  GI50: > 100 µM
  TGI: > 100 µM
SK-MEL-2 melanoma
  GI50: 36.5 µM
  TGI: > 100 µM
OVCAR-8 ovarian
  GI50: > 100 µM
  TGI: > 100 µM
BT-549 breast
  GI50: 14.4 µM
  TGI: 98.8 µM
MOLT-4 leukemia
  GI50: 63.3 µM
  TGI: > 100 µM
T-47D breast
  GI50: 50.1 µM
  TGI: > 100 µM
NCI/ADR-RES ovarian
  GI50: 80 µM
  TGI: > 100 µM
SR leukemia
  GI50: 4.38 µM
  TGI: 22.9 µM
HCT-15 colon
  GI50: > 100 µM
  TGI: > 100 µM
PC-3 prostate
  GI50: > 100 µM
  TGI: > 100 µM
786-0 renal
  GI50: 50.3 µM
  TGI: > 100 µM
RXF 393 renal
  GI50: > 100 µM
  TGI: > 100 µM
COLO 205 colon
  GI50: > 100 µM
  TGI: > 100 µM
